Laboratory results published in US8247412B2, “Urea derivatives methods for their manufacture and uses thereof” (Galapagos Sasu, priority 2005, dated 2012).
Structures can show the parent of a compound that is named as a salt.

How the values were obtained:
[1] = test system: serum level of PTH (1-34+1-84); test: Rats with chronic renal failure (5/6 nephrectomy), serum PTH after oral administration; assay type: in vivo, rats (Sprague-Dawley)
Experimental: II—Rats with Chronic Renal Failure • Chronic renal failure (CRF) was induced in male rats (220-250 g, Sprague-Dawley, CERJ) by ablation of ⅚ of the total renal mass. • After anaesthesia (Imalgene 1000), the rats were subjected to exeresis of the right kidney and ablation of both ends of the left kidney, representing approximately ⅔ of the organ). • The incision was cauterised by application of dry ice. […] The sera were frozen at −20° C. • After thawing, the serum level of PTH (1-34+1-84) was measured by a radioimmunology test (IRMA kit, rat, Immutopics).

[2] = test system: serum level of PTH (1-34+1-84); test: PTH measurement on intact rats (serum PTH after oral administration); assay type: in vivo, rats (Sprague-Dawley); settings: intact male rats
[3] = Rattus norvegicus, 0.5 h, 10 mg/kg, 30 min, read-out: % PTH reduction at 30 min relative to the untreated group

SMILES | change in vivo at 10 mg/kg [1, 3] | other results
O=C(Nc1nc2ccccc2s1)N(CCC(c1ccccc1)c1ccccc1)CCN1CCOCC1 [Example 8, 3-benzothiazol-2-yl-1-(3,3-diphenyl-propyl)-1-(2-morpholin-4-yl-ethyl)-urea dihydrochloride] | -80% | % PTH reduction at 2 h relative to the untreated group ([1]; 10 mg/kg, 2 h): −90%
Cc1ccc(-c2csc(NC(=O)N(CCC(c3ccccc3)c3ccccc3)CCN3CCOCC3)n2)o1 [Example 60, 1-(3,3-diphenyl-propyl)-3-[4-(5-methyl-furan-2-yl)-thiazol)-2-yl]-1-(2-morpholin-4-yl-ethyl)-urea dihydrochloride] | -87% | –
Cc1ccc(-c2csc(NC(=O)N(CCC(c3ccccc3)c3ccccc3)CCN3CCOCC3)n2)cc1 [Example 28, 1-(3,3-diphenyl-propyl)-1-(2-morpholin-4-yl-ethyl)-3-(4-p-tolyl-thiazol-2-yl)-urea dihydrochloride] | -91% | –
N#Cc1ccc(-c2csc(NC(=O)N(CCC(c3ccccc3)c3ccccc3)CCN3CCOCC3)n2)cc1 [Example 44, 3-[4-(4-cyano-phenyl)-thiazol-2-yl]-1-(3,3-diphenyl-propyl)-1-(2-morpholin-4-yl-ethyl)-urea dihydrochloride] | -88% | –
CS(=O)(=O)c1ccc(-c2csc(NC(=O)N(CCC(c3ccccc3)c3ccccc3)CCN3CCOCC3)n2)cc1 [40 a] | – | % PTH reduction at time t, relative to the untreated group ([2]; 10 mg/kg, at 2 h): −71% at 2 h
O=C(Nc1nc2ccc(Cl)cc2s1)N(CCC(c1ccccc1)c1ccccc1)CCN1CCOCC1 [Example 2, 3-(6-chloro-benzothiazol-2-yl)-1-(3,3-diphenyl-propyl)-1-(2-morpholin-4-yl-ethyl)-urea dihydrochloride] | -84% | % PTH reduction at time t, relative to the untreated group ([2]; 30 mg/kg, at 30 mn): −93% at 30 mn
O=C(Nc1nc(-c2ccc(Cl)cc2)cs1)N(CCC(c1ccccc1)c1ccccc1)CCN1CCOCC1 [Example 25, 3-[4-(4-chloro-phenyl)-thiazol-2-yl]-1-(3,3-diphenyl-propyl)-1-(2-morpholin-4-yl-ethyl)-urea dihydrochloride] | -74% | –
O=C(Nc1nc(-c2cccnc2)cs1)N(CCC(c1ccccc1)c1ccccc1)CCN1CCOCC1 [Example 47, 1-(3,3-diphenyl-propyl)-1-(2-morpholin-4-yl-ethyl)-3-(4-pyridin-3-yl-thiazol-2-yl)-urea trihydrochloride] | – | change in vivo at 30 mg/kg ([1]; Rattus norvegicus, 0.5 h, 30 mg/kg, 30 min, read-out: % PTH reduction at 30 min relative to the untreated group): -96%
O=C(Nc1nc(-c2ccc(N3CCCC3)cc2)cs1)N(CCC(c1ccccc1)c1ccccc1)CCN1CCOCC1 [Example 36, 1-(3,3-diphenyl-propyl)-1-(2-morpholin-4-yl-ethyl)-3-[4-(4-pyrrolidin-1-yl-phenyl)-thiazol-2-yl]-urea trihydrochloride] | -98% | –
O=C(Nc1nc(-c2ccc(F)cc2)cs1)N(CCC(c1ccccc1)c1ccccc1)CCN1CCOCC1 [54 a] | – | % PTH reduction at time t, relative to the untreated group ([2]; 10 mg/kg, at 2 h): −78% at 2 h
CCOC(=O)c1cc(-c2csc(NC(=O)N(CCC(c3ccccc3)c3ccccc3)CCN3CCOCC3)n2)on1 [Example 31, 5-{2-[3-(3,3-diphenyl-propyl)-3-(2-morpholin-4-yl-ethyl)-ureido]-thiazol-4-yl}-isoxazole-3-carboxylic acid ethyl ester dihydrochloride] | -85% | –
COc1ccc(-c2csc(NC(=O)N(CCC(c3ccccc3)c3ccccc3)CCN3CCOCC3)n2)cc1 [51 a] | – | % PTH reduction at time t, relative to the untreated group ([2]; 10 mg/kg, at 2 h): −78% at 2 h
